From patent US6846845B2, “Heat shock protein inducer” (Eisai Co., Ltd., priority 2002, dated 2005)

Legend:
Type in all cases: in vivo, rat
thioredoxin = test: Thioredoxin induction in the heart after oral administration (Western blotting); details: oral 200 mg/kg, 24 hours after administration, FIG. 4(B)
Description: (§1) Monoclonal IgG antibody cross-reactive to HSP70, HSP60 and HSP27 antibodies was purchased from Stressgen Biotechnologies Corporation ([…], Canada). Primary antibodies of nitric oxide synthase (NOS) or in other words inducible NOS (iNOS), endothelial NOS (eNOS) and neuronal NOS (nNOS) were purchased from Transduction Laboratories (Lexington, Ky.). The primary antibody of thioredoxin was kindly provided by Professor Yodoi of Kyoto University.
(§2) An emulsion of 100% by weight of geranylgeranylacetone (GGA) with 5% by weight of gum arabic and 0.008% by weight of tocopherol was given orally to the rats described above. The oral dosages were 50 mg/kg, 100 mg/kg, 200 mg/kg and 400 mg/kg (GGA groups). […] The vehicle was administered orally to the Control Group.
(§3) Next, the hearts were removed from the killed rats and frozen in liquid nitrogen. […]
(§4) The total protein concentration of the myocardium was quantified by the Bradford method (Bradford M M. A rapid and sensitive method for quantitation of microgram quantities of protein utilizing the principle of protein-dye binding. Anal Biochem 1976; 72:248-254). […] The proteins were detected by exposing the ECL cells with Hyperfilm (Amersham Pharmacia, Buckinghamshire, UK). Based on this, the amount of proteins on the immunoblots was quantified using National Institutes of Health (NIH) imaging software. […]

iNOS = iNOS induction in the heart after oral administration (Western blotting); details: oral 200 mg/kg, 24 hours after administration, FIG. 4(A)
Description: as §1, §2, §3, §4

[1] = test system: heat shock factor 1 (HSF1); test: HSF1 phosphorylation and translocation in cytosolic and nuclear heart fractions (Western immunoblotting); details: 24 h after GGA 200 mg/kg oral or vehicle; chelerythrine 5 mg/kg i.v. pretreatment, FIG. 9
Procedure: Male Sprague-Dawley rats (220-250 g) were used. GGA, as an emulsion with 5% gum arabic and 0.008% tocopherol, was given orally at a dose of 200 mg/kg. Rats were classified into 4 groups. FIG. 7 is a diagrammatic representation of experimental protocol. […] Twenty-four hours after oral administration of GGA or vehicle, rats were anesthetized (sodium pentobarbital, 50 mg/kg IP) and heparinized (500 IU/kg IP). Hearts were excised, immediately frozen in liquid nitrogen, and stored at −70° C. until use for Western blot analysis (n=4 for each group). […]
To analyze the expression of HSP70, the frozen heart samples were homogenized with SDS sample buffer (pH 6.8, 20% glycerol, 6% SDS, 0.12M Tris), centrifuged and boiled (Maloyan A, Palmon A, Horowitz M. Heat acclimation increases the basal HSP70 level and alters its production dynamics during heat stress. Am J Physiol. 1999; 276:R1506-R1515.). […] The total protein concentration of heart was quantified by the Bradford method (Bradford MM. A rapid and sensitive method for quantitation of microgram quantities of protein utilizing the principle of protein-dye binding. Anal. Biochem. 1976;72:248-254). […] The proteins were detected by ECL with exposure to Hyperfilm (Amersham Pharmacia). The amount of protein on the immunoblots was quantified using National Institutes of Health image software. […]

PKC (α, β, γ and ε) = test: Translocation of PKC isoforms α, β, γ and ε in particulate and cytosolic heart fractions (Western immunoblotting); details: 24 h after GGA 200 mg/kg oral or vehicle; chelerythrine 5 mg/kg i.v. pretreatment, FIG. 10
HSP27 = HSP27 induction in the heart after oral administration (Western blotting); details: oral 200 mg/kg, 24 hours after administration, FIG. 3(A)
Procedure: as §2
Next, the hearts were removed from the killed rats and frozen in liquid nitrogen.
Western blotting was then performed (Maloyan A, Palmon A, Horowitz M. Heat acclimation increases the basal HSP70 level and alters its production dynamics during heat stress. Am J Physiol 1999; 276:R1506-R1515). The frozen hearts were homogenized with SDS (sodium dodecyl sulfate) buffer, centrifuged and boiled.
as §4, with “72:248-254). The prepared hearts were then diluted in electrolyte buffer.” for “72:248-254).”

CC(=O)CCC=C(C)CCC=C(C)CCC=C(C)CCC=C(C)C [GGA, 6, 10, 14, 18-tetramethyl-5,9, 13, 17-nonadecatetraen-2-one]
thioredoxin induction in the heart (thioredoxin): not induced
iNOS induction in the heart (iNOS): neither iNOS nor eNOS was induced
amount of phosphorylated form of HSF1 in the nuclear fraction [1]: increased
PKC isoforms α, β, γ and ε in cytosolic and particulate fractions (PKC (α, β, γ and ε)): not influenced
HSP27 expression versus vehicle (HSP27): no obvious difference
